These results are taken from publication PMC5778463 (Nucleic Acids Research, 2017).

For experiment [1], the target named is B/Memphis cap-midlink double domain (Influenza B virus, UniProt Q5V8X3). In words: biochemical. The class given is binding, influenza B/Memphis/13/03.
In experiment [2] the test system is isolated influenza A PB2 cap-binding domain. The settings on record: cited from earlier work.
In the next experiment the test system is influenza B strains. The settings on record: cited from earlier work.

Each structure is given as a SMILES string. Values joined by “and” are separate entries in the source; they are usually repeats but may differ in a detail not shown here. Equal entries are not always repeated.

Chain of B/Memphis cap-midlink double domain (Q5V8X3 249-540 limits assumed): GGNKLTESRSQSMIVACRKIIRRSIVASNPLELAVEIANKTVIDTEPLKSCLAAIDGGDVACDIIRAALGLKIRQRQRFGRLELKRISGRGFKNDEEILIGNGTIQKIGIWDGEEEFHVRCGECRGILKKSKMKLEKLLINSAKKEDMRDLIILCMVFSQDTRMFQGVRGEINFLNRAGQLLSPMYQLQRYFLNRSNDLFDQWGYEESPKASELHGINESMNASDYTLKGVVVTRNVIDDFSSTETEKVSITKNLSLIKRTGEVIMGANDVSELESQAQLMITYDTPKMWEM

In the case of `O=C(O)[C@H]1C2CCC(CC2)[C@@H]1Nc1nc(-c2c[nH]c3ncc(F)cc23)ncc1F` [VX-787], the Kd in experiment [1] is 1200 nM; in experiment [2] (read-out: affinity to cap-binding domain alone) it was ~24 nM and 24 nM. For the same compound, the “times tighter binding than m^7GTP” value in experiment [2] is listed as about 60 times. Moreover, in the experiment on influenza B strains, the “potency against influenza B strains” value is “no potency”.
